Laboratory results reported in PubChem BioAssay AID256 (DTP/NCI, 2004).
Several values for one entry are separate records, joined by “and”; a condition that tells them apart may be missing. Equal entries are not always repeated. Toxic doses and inconclusive results are not listed. How the source made its calls: active means survival T/C of 150% or more; inactive means T/C below 125% in these data.

Test system: CD2F1 mice, L1210 leukemia ip, survival T/C
Assay: NCI In Vivo Anticancer Drug Screen. Data for tumor model L1210 Leukemia (intraperitoneal) in CD2F1 (CDF1) mice
Conditions: endpoint: mean survival time, higher = longer survival
Procedure, shortened: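 In this screen, transplantable tumors were grown in mice given either the compound or its vehicle. Results were expressed as the treated measurement relative to the control measurement.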

[1] = dose: 100.0 mg/kg/injection, schedule: Q01DX009 (ip), vehicle: saline with Tween-80
[2] = dose: 200.0 mg/kg/injection, schedule: Q01DX009 (ip), vehicle: saline with Tween-80
[3] = dose: 400.0 mg/kg/injection, schedule: Q01DX009 (ip), vehicle: saline with Tween-80
[4] = dose: 50.0 mg/kg/injection, schedule: Q04DX002 (ip), vehicle: saline with Tween-80
[5] = dose: 100.0 mg/kg/injection, schedule: Q04DX002 (ip), vehicle: saline with Tween-80
[6] = dose: 50.0 mg/kg/injection, schedule: Q01DX009 (ip), vehicle: saline
[7] = dose: 100.0 mg/kg/injection, schedule: Q01DX009 (ip), vehicle: saline
[8] = dose: 75.0 mg/kg/injection, schedule: Q01DX001 (ip), vehicle: saline
[9] = dose: 100.0 mg/kg/injection, schedule: Q01DX001 (ip), vehicle: saline
[10] = dose: 200.0 mg/kg/injection, schedule: Q01DX009 (ip), vehicle: saline
[11] = dose: 25.0 mg/kg/injection, schedule: Q04DX003 (ip), vehicle: saline with Tween-80
[12] = dose: 100.0 mg/kg/injection, schedule: Q04DX003 (ip), vehicle: saline with Tween-80
[13] = dose: 100.0 mg/kg/injection, schedule: Q01DX001 (ip), vehicle: saline with Tween-80
[14] = dose: 200.0 mg/kg/injection, schedule: Q01DX001 (ip), vehicle: saline with Tween-80
[15] = dose: 400.0 mg/kg/injection, schedule: Q01DX001 (ip), vehicle: saline with Tween-80
[16] = dose: 200.0 mg/kg/injection, schedule: Q04DX002 (ip), vehicle: saline with Tween-80
[17] = dose: 400.0 mg/kg/injection, schedule: Q04DX002 (ip), vehicle: saline with Tween-80
[18] = dose: 200.0 mg/kg/injection, schedule: Q04DX003 (ip), vehicle: saline with Tween-80
[19] = dose: 400.0 mg/kg/injection, schedule: Q04DX003 (ip), vehicle: saline with Tween-80
[20] = dose: 100.0 mg/kg/injection, schedule: Q04DX003 (ip), vehicle: Klucel (hydroxypropylcellulose) (HPC)
[21] = dose: 200.0 mg/kg/injection, schedule: Q04DX003 (ip), vehicle: Klucel (hydroxypropylcellulose) (HPC)

Measured: T/C

NC(=O)Oc1cc(OC(N)=O)cc(N(CCCl)CCCl)c1
inactive: dose: 12.5 mg/kg/injection, schedule: Q01DX009 (ip), vehicle: other 103 % of control | dose: 25.0 mg/kg/injection, schedule: Q01DX001 (ip), vehicle: water 98 % of control | dose: 25.0 mg/kg/injection, schedule: Q01DX009 (ip), vehicle: other 114 % of control | dose: 50.0 mg/kg/injection, schedule: Q01DX001 (ip), vehicle: water 108 % of control | dose: 50.0 mg/kg/injection, schedule: Q01DX009 (ip), vehicle: other 111 % of control | dose: 100.0 mg/kg/injection, schedule: Q01DX001 (ip), vehicle: water 108 % of control | dose: 100.0 mg/kg/injection, schedule: Q01DX009 (ip), vehicle: other 116 % of control | dose: 200.0 mg/kg/injection, schedule: Q01DX001 (ip), vehicle: water 117 % of control | dose: 200.0 mg/kg/injection, schedule: Q01DX009 (ip), vehicle: other 104 % of control | dose: 400.0 mg/kg/injection, schedule: Q01DX001 (ip), vehicle: water 120 % of control

COCC1OC(OC)C(OC)C(OC)C1OC (centres undefined)
inactive: [1] 94 % of control | [2] 102 % of control | [3] 105 % of control

O=C(OCc1ccccc1)OC1C2COC(O2)C(OC(=O)OCc2ccccc2)C1O (centres undefined)
inactive: [1] 95 % of control | [2] 95 % of control | [3] 89 % of control

O=C1C2CCN(CC2)C1CN1CCC2(CC1)C(=O)NCN2c1ccccc1 (centres undefined)
inactive: [4] 93 % of control | [5] 112 % of control

CC[S+](CC)CC
inactive: [6] 100 % of control | [7] 97 % of control

O=C1CCC(=O)N1N1C(=O)CCC1=O
inactive: dose: 100.0 mg/kg/injection, schedule: Q01DX001 (ip), vehicle: Klucel (hydroxypropylcellulose) (HPC) 101 % of control | dose: 200.0 mg/kg/injection, schedule: Q01DX001 (ip), vehicle: Klucel (hydroxypropylcellulose) (HPC) 96 % of control | dose: 400.0 mg/kg/injection, schedule: Q01DX001 (ip), vehicle: Klucel (hydroxypropylcellulose) (HPC) 96 % of control

O=C(O)c1ccc(Cl)cc1Nc1ccc(O)cc1
inactive: dose: 25.0 mg/kg/injection, schedule: Q04DX002 (ip), vehicle: saline with Tween-80 96 % of control | [4] 116 % of control | [5] 101 % of control and 102 % of control

CC(C)N1CCOC1c1ccccc1 (centres undefined)
inactive: [8] 101 % of control | dose: 150.0 mg/kg/injection, schedule: Q01DX001 (ip), vehicle: saline 101 % of control | dose: 300.0 mg/kg/injection, schedule: Q01DX001 (ip), vehicle: saline 97 % of control

O=c1[nH]c(=S)[nH]c2ncn(C3OC(CO)C(O)C3O)c12 (centres undefined)
inactive: [9] 102 % of control | dose: 200.0 mg/kg/injection, schedule: Q01DX001 (ip), vehicle: saline 100 % of control | dose: 400.0 mg/kg/injection, schedule: Q01DX001 (ip), vehicle: saline 102 % of control

Cc1ccc(S(=O)(=O)OC2CCCCC2c2ccc(C(F)(F)F)cc2)cc1 (centres undefined)
inactive: dose: 75.0 mg/kg/injection, schedule: Q01DX001 (ip), vehicle: other 96 % of control | dose: 150.0 mg/kg/injection, schedule: Q01DX001 (ip), vehicle: other 88 % of control | dose: 300.0 mg/kg/injection, schedule: Q01DX001 (ip), vehicle: other 88 % of control

CN1C(=S)c2ccccc2S1(=O)=O
inactive: [7] 96 % of control | [10] 96 % of control | dose: 400.0 mg/kg/injection, schedule: Q01DX009 (ip), vehicle: saline 102 % of control

CCCCC(CC)CNC(=O)CI (centres undefined)
inactive: [9] 96 % of control

COc1ccc(OC)c(CCN)c1
inactive: dose: 12.5 mg/kg/injection, schedule: Q01DX009 (ip), vehicle: saline with Tween-80 101 % of control | dose: 25.0 mg/kg/injection, schedule: Q01DX009 (ip), vehicle: saline with Tween-80 102 % of control | [11] 100 % of control | dose: 50.0 mg/kg/injection, schedule: Q01DX009 (ip), vehicle: saline with Tween-80 93 % of control | dose: 50.0 mg/kg/injection, schedule: Q04DX003 (ip), vehicle: saline with Tween-80 97 % of control | [12] 108 % of control

CN(C)CC1CCCCN1 (centres undefined)
inactive: [6] 94 % of control | [7] 94 % of control | [10] 94 % of control

O=C(CCl)c1cnc2ccccc2n1
inactive: dose: 5.0 mg/kg/injection, schedule: Q01DX001 (ip), vehicle: saline 91 % of control | dose: 10.0 mg/kg/injection, schedule: Q01DX001 (ip), vehicle: saline 94 % of control | dose: 20.0 mg/kg/injection, schedule: Q01DX001 (ip), vehicle: saline 95 % of control

Nc1nc(N)c2nc3c4ccccc4c4ccccc4c3nc2n1
inactive: [13] 95 % of control | [1] 93 % of control | [14] 91 % of control | [15] 97 % of control

CC1C2OC2C(C)S1(=O)=O (centres undefined)
inactive: [13] 100 % of control | [5] 93 % of control | [14] 101 % of control | [16] 101 % of control | [15] 101 % of control | [17] 89 % of control

O=S(=O)(O)c1cc(N=Nc2cccc3ccccc23)c(O)c2ncccc12
inactive: [12] 104 % of control | [18] 97 % of control | [19] 106 % of control

CC(=O)C1CCC2C3CC=C4CC(n5ccc(=O)[nH]c5=O)CCC4(C)C3CCC12C (centres undefined)
inactive: dose: 12.5 mg/kg/injection, schedule: Q04DX003 (ip), vehicle: Klucel (hydroxypropylcellulose) (HPC) 97 % of control | dose: 25.0 mg/kg/injection, schedule: Q04DX003 (ip), vehicle: Klucel (hydroxypropylcellulose) (HPC) 101 % of control | dose: 50.0 mg/kg/injection, schedule: Q04DX003 (ip), vehicle: Klucel (hydroxypropylcellulose) (HPC) 97 % of control | [20] 97 % of control | [21] 92 % of control

CC1CC(C)(C)CC(=O)O1 (centres undefined)
inactive: [8] 101 % of control

C[n+]1ccccc1/C=C/c1cccc([N+](=O)[O-])c1
inactive: dose: 5.0 mg/kg/injection, schedule: Q01DX009 (ip), vehicle: saline with Tween-80 100 % of control | dose: 10.0 mg/kg/injection, schedule: Q01DX009 (ip), vehicle: saline with Tween-80 105 % of control | dose: 20.0 mg/kg/injection, schedule: Q01DX009 (ip), vehicle: saline with Tween-80 107 % of control

CC[N+](CC)=c1ccc2nc3c(cc(N)c4ccccc43)oc-2c1
inactive: dose: 6.25 mg/kg/injection, schedule: Q01DX009 (ip), vehicle: saline sonified 97 % of control | dose: 6.25 mg/kg/injection, schedule: Q04DX003 (ip), vehicle: saline with Tween-80 101 % of control | dose: 12.5 mg/kg/injection, schedule: Q01DX009 (ip), vehicle: saline sonified 104 % of control | dose: 12.5 mg/kg/injection, schedule: Q04DX003 (ip), vehicle: saline with Tween-80 101 % of control | [11] 98 % of control

CCCCCC(CC)OC(=O)Nc1cccc2ccccc12 (centres undefined)
inactive: [12] 89 % of control | [18] 101 % of control | [19] 100 % of control

N=c1c2cnn(C3OC(CO)C(O)C3O)c2ncn1N (centres undefined)
inactive: dose: 6.25 mg/kg/injection, schedule: Q01DX009 (ip), vehicle: water 103 % of control | dose: 12.5 mg/kg/injection, schedule: Q01DX009 (ip), vehicle: water 115 % of control and 112 % of control | dose: 50.0 mg/kg/injection, schedule: Q01DX009 (ip), vehicle: water 91 % of control

BrCCCCCCCCCCC1(c2ccccc2)OCCO1
inactive: [20] 90 % of control | [21] 94 % of control | dose: 400.0 mg/kg/injection, schedule: Q04DX003 (ip), vehicle: Klucel (hydroxypropylcellulose) (HPC) 95 % of control

CN(C)C=Nc1cnc2ccccc2c1
inactive: [12] 95 % of control | [18] 95 % of control | [19] 96 % of control

CC(=O)NC(=O)NC(Cc1ccccc1)c1ccccc1 (centres undefined)
inactive: [1] 98 % of control | [12] 104 % of control | [2] 92 % of control | [18] 96 % of control | [3] 95 % of control | [19] 108 % of control

C(=NCc1ccccc1)c1ccc2c(c1)OCO2
inactive: [5] 100 % of control | [16] 100 % of control | [17] 100 % of control
